Measurements: patent US9820972B2, “Antiviral compounds highly effective as HCV-NS5A inhibitor” (priority 2013, dated 2017)
pEC50: −log10 of the molar value. Read-outs that look alike come from different tables or passages of the source.

Legend:
[1] = test system: HCV NS5A Replicon GT-6a; test: HCV double reporter gene replicon assay, GT-6a; format: cell-based; details: Hepatitis C virus, genotype 1a / genotype 6a; GT-6a replicon
Description: (§1) Antiviral Assay for Inhibition Activity (EC50):
(§2) The study is completed by a new constructed double reporter genes replicon assay system, the capacity of viral replicon in infected cell is determined by detecting the reporter gene Renilla luciferase. The relationship of reporter genes, HCV RNA replicon and viral proteins is well linear. 8 gradient concentrations for 2-fold dilution, 3 wells, 3 times repetition and 1 or 2 control drugs are set to finally determine EC50 of compound.
(§3) THF was distilled from sodium metal and benzophenone. DCM, pentane and hexane were distilled form calcium hydride. Special raw material and intermediate in the invention were ordered by contract synthesis from Zannan SciTech Co., Let in China, others reagents were purchased from Shanghai reagent company, Aldrich, Acros etc. As intermediates or products during the synthesis is not required for the reaction and other tests the next step, the synthesis is repeated until a sufficient number of times. The invention of the prepared compounds of […] (HCV NS5A) inhibitory activity test was performed by CRO service units such as WuXi AppTec etc.

[2] = Acute Toxicity Study (MTD); format: in vivo, rats and mice; details: rats or mice, fed once, oral dose 10000 mg/kg, observed for a week
Text: Acute Toxicity Study (MTD):
Materials and Methods for MTD Study are as follows:
Animals were fed freely for adaptation more than 1 week. Healthy rats, body weight between 170-190 g, were divided randomly into 3 groups, 5 male and 5 female in each group. Healthy mice, body weight between 18-22 g, were divided randomly into 22 groups, 5 male and 5 female in each group.
In rats, the compound weighing 21.00 g, serial number 1-3 respectively, adding 0.7% sodium carboxymethyl cellulose solution 30.00 g, high-speed homogenizer machine 15000 RPM, 10 min mixing, the rats were fed once, oral dose 10000 mg/kg. In mice, the compound weighing 2.00 g, serial number 4-25 respectively, adding 0.7% sodium carboxymethyl cellulose solution 8.00 g, high-speed homogenizer machine 10000 RPM, 10 min mixing, the mice were fed once, oral dose 10000 mg/kg.
Animals were observed every hour after administration in the first day, and behavior observation daily continuous for a week. Dead animals were necropsied, gross pathology of the organs were observed and recorded.
Toxicity was evaluated by animal mortality, signs of clinical behavior and others.

[3] = test system: HCV NS5A Replicon GT-1b; test: HCV double reporter gene replicon assay, GT-1b; format: cell-based; details: Hepatitis C virus, genotype 1a / genotype 1b / genotype 6a; GT-1b replicon
Description: as §1, §2, §3

[4] = test system: HCV NS5A Replicon GT-2a; test: HCV double reporter gene replicon assay, GT-2a; format: cell-based; details: Hepatitis C virus, genotype 1a / genotype 2a / genotype 6a; GT-2a replicon
Description: as §1, §2, §3

[5] = test system: GT-1a of NS5A Replicon; test: HCV double reporter gene (Renilla luciferase) replicon assay, GT-1a; format: cell-based, Hepatitis C virus (HCV); details: for EC50: genotype 1a / genotype 6a, read-out: EC50 for Replicon (pM) of GT-1a to GT-6a: 1a; for pEC50: read-out: EC50 For GT-1a of NS5A Replicon
In short: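 Replication measured in a double-reporter HCV replicon cell system by Renilla luciferase signal. EC50 from 8-point 2-fold dilutions, triplicate wells, three repeats, with 1 or 2 control drugs.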

[6] = test system: HCV NS5A Replicon GT-3a; test: HCV double reporter gene replicon assay, GT-3a; format: cell-based; details: Hepatitis C virus, genotype 1a / genotype 3a / genotype 6a; GT-3a replicon
Description: as §1, §2, §3

[7] = test system: HCV NS5A Replicon GT-5a; test: HCV double reporter gene replicon assay, GT-5a; format: cell-based; details: Hepatitis C virus, genotype 1a / genotype 5a / genotype 6a; GT-5a replicon
Description: as §1, §2, §3

[8] = test system: HCV NS5A Replicon GT-4a; test: HCV double reporter gene replicon assay, GT-4a; format: cell-based; details: Hepatitis C virus, genotype 1a / genotype 4a / genotype 6a; GT-4a replicon
Description: as §1, §2, §3

[9] = Hepatitis C virus, GT1A, GT-1a replicon, class symbols

SMILES | EC50 [1] [pM] | MTD results: test-article related death and adverse events [2] | EC50 [3] [pM] | EC50 [4] [pM] | EC50 ([5]; Hepatitis C virus) [pM] | pEC50 [5, 9] | further results
COC(=O)N[C@H](C(=O)N1CC=C[C@H]1c1ncc(-c2ccc(-c3ccc(-c4c[nH]c([C@@H]5CCCN5C(=O)[C@@H](NC(=O)OC)C(C)C)n4)cc3)cc2)[nH]1)C(C)C [Compound 6ba] | 221 | no any test-article related death and no any adverse events observed | 12 | 16 | 39 |  | 
COC(=O)N[C@H](C(=O)N1CCCC1c1nc(-c2ccc(-c3ccc(-c4c[nH]c(C5C=CCN5C(=O)[C@H](NC(=O)OC)c5ccccc5)n4)cc3)cc2)c[nH]1)C(C)C (stereo partly drawn) [Compound 6bx] |  | no any test-article related death and no any adverse events observed |  |  |  | 9.00 to 12.00 | 
COC(=O)N[C@H](C(=O)N1CC=CC1c1nc(-c2ccc(-c3ccc(-c4c[nH]c(C5CCCN5C(=O)[C@H](NC(=O)OC)c5ccccc5)n4)cc3)cc2)c[nH]1)C(C)C (stereo partly drawn) [Compound 6by] |  | no any test-article related death and no any adverse events observed |  |  |  | 9.00 to 12.00 | 
COC(=O)N[C@@H](C(=O)N1CC=CC1c1nc(-c2ccc(-c3ccc(-c4c[nH]c(C5CCCN5C(=O)[C@H](NC(=O)OC)c5ccccc5)n4)cc3)cc2)c[nH]1)c1ccccc1 (stereo partly drawn) [Compound 6bz] |  | no any test-article related death and no any adverse events observed |  |  |  | 9.00 to 12.00 | 
COC(=O)N[C@H](C(=O)N1CCC[C@H]1c1nc(-c2ccc(-c3ccc(-c4cnc([C@@H]5C=CCN5C(=O)[C@H](NC(=O)OC)c5ccccc5)[nH]4)cc3)cc2)c[nH]1)C(C)C [Compound 6dy] | 24 |  | 14 | 6 | 11 |  | 
COC(=O)N[C@H](C(=O)N1CCCC1c1nc(-c2cc3sc(-c4ccc(-c5c[nH]c(C6C=CCN6C(=O)[C@H](NC(=O)OC)c6ccccc6)n5)cc4)cc3s2)c[nH]1)C(C)C (stereo partly drawn) [Compound 6fc] |  | no any test-article related death and no any adverse events observed |  |  |  |  | 
COC(=O)N[C@@H](C(=O)N1CC=CC1c1nc(-c2ccc(-c3cc4sc(-c5c[nH]c(C6CCCN6C(=O)[C@H](NC(=O)OC)c6ccccc6)n5)cc4s3)cc2)c[nH]1)c1ccccc1 (stereo partly drawn) [Compound 6fd] | 111 | no any test-article related death and no any adverse events observed | 11 | 5 | 21 | 9.00 to 12.00 | EC50 [6]: 15 pM; EC50 [7]: 23 pM; EC50 [8]: 8 pM
COC(=O)N[C@H](C(=O)N1CC=C[C@H]1c1ncc(-c2ccc(-c3cc4sc(-c5cnc([C@@H]6CCCN6C(=O)[C@@H](NC(=O)OC)C(C)C)[nH]5)cc4s3)cc2)[nH]1)C(C)C [Compound 6fg] |  | no any test-article related death and no any adverse events observed |  |  |  | 9.00 to 12.00 | 
COC(=O)N[C@H](C(=O)N1CC=C[C@H]1c1ncc(-c2ccc(-c3cc4sc(-c5cnc([C@@H]6CCCN6C(=O)[C@H](NC(=O)OC)c6ccccc6)[nH]5)cc4s3)cc2)[nH]1)C(C)C [Compound 6fi] | 55 | no any test-article related death and no any adverse events observed | 5 | 7 | 20 |  | 
COC(=O)N[C@H](C(=O)N1CCC[C@H]1c1ncc(-c2ccc(-c3cc4sc(-c5cnc([C@@H]6C=CCN6C(=O)[C@H](NC(=O)OC)c6ccccc6)[nH]5)cc4s3)cc2)[nH]1)C(C)C [Compound 6fm] | 23 | no any test-article related death and no any adverse events observed | 13 | 8 | 9 |  | 
COC(=O)N[C@H](C(=O)N1CC=C[C@H]1c1ncc(-c2cc3sc(-c4ccc(-c5cnc([C@@H]6CCCN6C(=O)[C@H](NC(=O)OC)c6ccccc6)[nH]5)cc4)cc3s2)[nH]1)C(C)C [Compound 6fp] |  | no any test-article related death and no any adverse events observed |  |  |  | 9.00 to 12.00 | 
COC(=O)N[C@H](C(=O)N1CCC[C@H]1c1nc(-c2ccc(-c3ccc(-c4c[nH]c([C@@H]5CCCN5C(=O)[C@@H](NC(=O)OC)C(C)C)n4)cc3)cc2)c[nH]1)C(C)C [Ref-1, reference compound] | 118 |  | 21 | 29 | 52 |  | 
COC(=O)N[C@H](C(=O)N1CC2(CC2)C[C@H]1c1nc(-c2ccc3c(c2)C(F)(F)c2cc(-c4ccc5[nH]c([C@@H]6[C@H]7CC[C@H](C7)N6C(=O)[C@@H](NC(=O)OC)C(C)C)nc5c4)ccc2-3)c[nH]1)C(C)C [Ref-2, reference compound] |  |  |  |  | 88 |  | pEC50 ([5]; Hepatitis C virus, GT1A): 9.00 to 12.00
COC(=O)N[C@@H](C(=O)N1CCCC1c1ncc(-c2ccc(-c3cc4sc(-c5cnc([C@@H]6CCCN6C(=O)[C@H](NC(=O)OC)c6ccccc6)[nH]5)cc4s3)cc2)[nH]1)c1ccccc1 (stereo partly drawn) [Ref-3, reference compound] |  |  |  |  | 51 | 9.00 to 12.00 | 
COC(=O)N[C@H](C(=O)N1CCC[C@H]1c1nc2cc(-c3csc4c(-c5ccc(-c6c[nH]c([C@@H]7CCCN7C(=O)[C@H](NC(=O)OC)c7ccccc7)n6)cc5)csc34)ccc2[nH]1)C(C)C [Ref-4, reference compound] |  |  |  |  |  |  | pEC50 ([5]; GT-1a replicon, class symbols): 9.00 to 12.00
